Experimental data as given in BigSolDB 2.1.

C[C@@H]1O[C@@H](OC[C@H]2O[C@@H](Oc3c(-c4ccc(OCCO)c(OCCO)c4)oc4cc(OCCO)cc(O)c4c3=O)[C@H](O)[C@@H](O)[C@@H]2O)[C@H](O)[C@H](O)[C@H]1O
solubility (mole fraction)
Details	288.15 K	293.15 K	298.15 K	303.15 K	308.15 K	313.15 K	318.15 K	323.15 K
in 1,4-dioxane	0.000517	0.000596	0.000724	0.000865	0.00103	0.00121	0.00144	0.00171
in acetone	3.1e-05	3.4e-05	4.2e-05	5.5e-05	7e-05	9.1e-05	0.000124	0.000162
in acetonitrile	8e-06	1.2e-05	1.5e-05	2.1e-05	2.8e-05	3.8e-05	4.9e-05	7e-05
in ethanol	0.000228	0.000252	0.00029	0.000346	0.000407	0.000468	0.000547	0.000632
in isobutanol	4.1e-05	5.4e-05	7e-05	9e-05	0.000125	0.000176	0.000238	0.000312
in isopropanol	9.3e-05	0.000119	0.000161	0.000207	0.000268	0.000329	0.000403	0.000519
in methanol	0.000245	0.000291	0.000362	0.00045	0.000573	0.000714	0.000876	0.00107
in n-butanol	8e-05	0.000102	0.000142	0.000187	0.000248	0.000312	0.000382	0.000494
in n-pentanol	7.1e-05	9e-05	0.000107	0.000132	0.00017	0.000222	0.000289	0.000377
in n-propanol	0.000144	0.000177	0.000215	0.000258	0.000317	0.000377	0.000458	0.000562
in sec-butanol	8.6e-05	0.000108	0.00015	0.000194	0.000254	0.000319	0.000391	0.000505
